Laboratory results: PMC12123458, “Unraveling Small Molecule-Mediated Sirtuin 3 Activation at a Distinct Binding Site for Cardioprotective Therapies” (ACS Central Science, 2025)

Columns and labels:
[1] = test system: H9c2 cells; assay: Dox-induced cardiotoxicity model in H9c2 cells, MTT cell viability; assay type: cell-based; settings: for effect of co-treatment on the cardioprotective efficacy of SKLB-11A: Dox-treated H9c2 cells, cell viability; for viability at 10 µM: Rattus norvegicus, H9c2, 10 µM pretreatment 24 h, then 1 µM Dox 24 h, MTT, Model (Dox) = Dox alone, read-out: Cardiomyocyte survival rate at 10 uM (%)
Procedure: H9c2 cardiomyocytes were cultured in high-glucose DMEM supplemented with 10% FBS and 1% penicillin/streptomycin under a 5% CO2 atmosphere at 37 °C. Cells were seeded at 5 × 10^4 cells/mL in 96-well plates and treated with 1 μM Dox for 24 h. After Dox treatment, cell viability was quantified via MTT assay; 3-(4,5-dimethythiazol-2-yl)-2,5-diphenyltetrazolium bromide (MTT, 5 mg/mL) was applied for 4 h, followed by DMSO dissolution of formazan crystals. Additionally, cells were pretreated with 10 μM SKLB-11A for 24 h prior to 1 μM Dox exposure, and viability was similarly assessed using MTT.

[2] = test system: LC3, p62, PINK1, Parkin in H9c2 cells; assay: Autophagy/mitophagy markers in H9c2 cells (Western blot, immunofluorescence); assay type: cell-based; settings: 24 h
Procedure: Proteomic analysis was conducted on H9c2 cells and murine cardiac tissues. Protein lysates were resolved via SDS-PAGE and transferred onto PVDF membranes. […] After washing, membranes were probed with secondary antibodies for 1 h at room temperature. Detection was facilitated by an ECL kit, with densitometry performed using ImageJ software to quantify protein expression, normalized against controls. The antibodies employed included: anti-SIRT3 (2627, Cell Signaling Technology), anti-acetylated lysine (9441, CST), anti-Ac.K68-MnSOD2 (ab137037, Abcam), anti-Ac.K122-MnSOD2 (ab214675, Abcam), anti-MnSOD2 (13141, CST), anti-LC3B (3868, CST), anti-p62 (8025, CST), anti-PINK1 (6946, CST), anti-Parkin (4211, CST), and anti-β-actin (ab8226, Abcam).

[3] = target: T1, SIRT3 (Homo sapiens, UniProt Q9NTG7); assay: Fluor de Lys (FDL) fluorimetric SIRT3 deacetylase activity assay; assay type: biochemical; settings: 100 µM, FDL deacetylation assay, compared to the control group, mean ± SD; for activity at 100 µM: 0.5 h, read-out: % effect @ 100 µM of SIRT3
T1 construct: purchased Enzo Life Sciences BML-AK557-0001
T1 sequence (Q9NTG7 1-399): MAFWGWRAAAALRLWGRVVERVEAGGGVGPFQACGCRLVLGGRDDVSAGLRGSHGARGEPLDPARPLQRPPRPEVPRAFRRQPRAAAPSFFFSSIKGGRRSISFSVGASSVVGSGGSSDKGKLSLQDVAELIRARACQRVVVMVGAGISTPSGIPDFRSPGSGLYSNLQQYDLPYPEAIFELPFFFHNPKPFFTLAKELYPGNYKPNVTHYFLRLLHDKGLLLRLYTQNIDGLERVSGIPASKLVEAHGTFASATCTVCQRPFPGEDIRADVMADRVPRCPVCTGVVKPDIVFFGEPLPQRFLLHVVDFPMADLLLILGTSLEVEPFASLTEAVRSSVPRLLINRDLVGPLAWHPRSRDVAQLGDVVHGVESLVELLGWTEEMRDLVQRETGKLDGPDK
Procedure: The SIRT3 activity was assessed using the Enzo Life Sciences kit (BML-AK557-0001) per the protocol provided. A 10 μM fluoro-acetylated p53 peptide and 500 μM NAD^+ were added to SIRT3 assay buffer, incubated with test compounds and 0.5 μg recombinant SIRT3 at 37 °C for 30 min. In the mass spectrometry (MS) assay, 5 μM hSirt3 was reacted with 0.25 mM peptide and 1.25 mM NAD^+, with or without 10 μM SKLB-11A in 2% DMSO, at 37 °C. Controls included 2% DMSO without SKLB-11A. The reaction was halted at defined intervals using 5 mM nicotinamide, and the mixture then underwent filtration and subjected to nano LC-MS/MS analysis. Acetylated Peptide: MnSOD-K122 ([…]-Ac).

**Q.** Which results are given for `c1cncc(-c2cn[nH]n2)c1` [3-TYP, reference compound]?
**A.** effect of co-treatment on the cardioprotective efficacy of SKLB-11A [1]: attenuated the efficacy of SKLB-11A; LC3-II and p62 (autophagic flux) [2]: reduced LC3-II localization

**Q.** For `COc1cccc2c1C(=O)c1c(O)c3c(c(O)c1C2=O)C[C@@](O)(C(=O)CO)C[C@@H]3O[C@H]1C[C@H](N)[C@H](O)[C@H](C)O1` [Dox, doxorubicin, reference compound], which viability at 10 µM [1] is on record?
**A.** 61.93 ± 0.51%

**Q.** Which “effect of co-treatment on the cardioprotective efficacy of SKLB-11A” value [1] does the source give for `COc1cc(-n2c(=S)[nH]c3ccccc3c2=O)c(Cl)cc1Cl` [Mdivi-1, reference compound] here?
**A.** attenuated the cardioprotective effects of SKLB-11A

**Q.** How did the viability at 10 µM [1] turn out when `COc1ccc(Cn2c(N)c(C#N)c3nc4ccccc4nc32)cc1` [SKLB-4A, 2-amino-1-(4-methoxybenzyl)-1H-pyrrolo[2,3-b]quinoxaline-3-carbonitrile] was run?
**A.** 65.3 ± 4.54%

**Q.** What about the activity at 100 µM [3] of the same molecule?
**A.** 118.2 ± 0.79%

**Q.** With `N#Cc1c(N)n(Cc2ccc(F)cc2)c2nc3ccccc3nc12` [SKLB-4B, 2-amino-1-(4-fluorobenzyl)-1H-pyrrolo[2,3-b]quinoxaline-3-carbonitrile] as the molecule, how does the viability at 10 µM [1] read?
**A.** 70.8 ± 3.03%

**Q.** What about the “% effect @ 100 µM of SIRT3” value [3] of the same molecule?
**A.** significant increase in SIRT3 deacetylation activity

**Q.** And the activity at 100 µM [3]?
**A.** 130.6 ± 0.36%

**Q.** With `N#Cc1c(N)n(Cc2ccc(Br)cc2)c2nc3ccccc3nc12` [SKLB-4C, 2-amino-1-(4-bromobenzyl)-1H-pyrrolo[2,3-b]quinoxaline-3-carbonitrile] as the molecule, how does the viability at 10 µM [1] read?
**A.** 68.25 ± 0.51%

**Q.** And the activity at 100 µM [3]?
**A.** 126.4 ± 0.81%

**Q.** With `COc1cccc(-n2c(N)c(C#N)c3nc4ccccc4nc32)c1` [SKLB-4D, 2-amino-1-(3-methoxyphenyl)-1H-pyrrolo[2,3-b]quinoxaline-3-carbonitrile] as the molecule, how does the viability at 10 µM [1] read?
**A.** 64.4 ± 3.28%

**Q.** What about the activity at 100 µM [3] of the same molecule?
**A.** 103.1 ± 1.02%

**Q.** Which results are given for `COc1ccc(-n2c(N)c(C#N)c3nc4ccccc4nc32)cc1` [SKLB-4E, 2-amino-1-(4-methoxyphenyl)-1H-pyrrolo[2,3-b]quinoxaline-3-carbonitrile]?
**A.** viability at 10 µM [1]: 65.9 ± 2.41%; activity at 100 µM [3]: 110.4 ± 0.95%

**Q.** With `N#Cc1c(N)n(-c2ccccc2F)c2nc3ccccc3nc12` [SKLB-4F, 2-amino-1-(2-fluorophenyl)-1H-pyrrolo[2,3-b]quinoxaline-3-carbonitrile] as the molecule, how does the viability at 10 µM [1] read?
**A.** 65.17 ± 0.38%

**Q.** What about the activity at 100 µM [3] of the same molecule?
**A.** 106 ± 1.96%

**Q.** Which viability at 10 µM [1] does the source give for `Nc1c(C(=O)O)c2nc3ccccc3nc2n1Cc1ccc(F)cc1` [SKLB-5A, 2-amino-1-(4-fluorobenzyl)-1H-pyrrolo[2,3-b]quinoxaline-3-carboxylic acid] here?
**A.** 75.5 ± 2.69%

**Q.** And the activity at 100 µM [3]?
**A.** 154 ± 2.69%

**Q.** For `CC(C)(C)OC(=O)Nc1c(C(=O)O)c2nc3ccccc3nc2n1Cc1ccc(F)cc1` [SKLB-7A, 2-((tert-butoxycarbonyl)amino)-1-(4-fluorobenzyl)-1H-pyrrolo[2,3-b]quinoxaline-3-carboxylic acid], which viability at 10 µM [1] is on record?
**A.** 66.1 ± 0.8%

**Q.** And the “% effect @ 100 µM of SIRT3” value [3]?
**A.** significantly reduced SIRT3 deacetylation activity

**Q.** And the activity at 100 µM [3]?
**A.** 109.3 ± 0.71%

**Q.** Which results are given for `CCOC(=O)c1c(N)n(Cc2ccc(F)cc2)c2nc3ccccc3nc12` [SKLB-11B, Ethyl 2-amino-1-(4-fluorobenzyl)-1H-pyrrolo[2,3-b]quinoxaline-3-carboxylate]?
**A.** viability at 10 µM [1]: 77 ± 1.96%; % effect @ 100 µM of SIRT3 [3]: maintained or enhanced the activity; activity at 100 µM [3]: 167.4 ± 1.13%

**Q.** For `CC(C)OC(=O)c1c(N)n(Cc2ccc(F)cc2)c2nc3ccccc3nc12` [SKLB-11C, Isopropyl 2-amino-1-(4-fluorobenzyl)-1H-pyrrolo[2,3-b]quinoxaline-3-carboxylate], which viability at 10 µM [1] is on record?
**A.** 70.2 ± 1.89%

**Q.** What about the activity at 100 µM [3] of the same molecule?
**A.** 124.2 ± 0.84%

**Q.** `CC(C)(C)OC(=O)c1c(N)n(Cc2ccc(F)cc2)c2nc3ccccc3nc12` [SKLB-11D, Tert-butyl 2-amino-1-(4-fluorobenzyl)-1H-pyrrolo[2,3-b]quinoxaline-3-carboxylate] was tested. Which viability at 10 µM [1] did it give?
**A.** 74.3 ± 1.7%

**Q.** What about the “% effect @ 100 µM of SIRT3” value [3] of the same molecule?
**A.** maintained or enhanced the activity

**Q.** What about the activity at 100 µM [3] of the same molecule?
**A.** 148 ± 3.07%

**Q.** With `Nc1c(C(=O)Oc2ccccc2)c2nc3ccccc3nc2n1Cc1ccc(F)cc1` [SKLB-11E, Phenyl 2-amino-1-(4-fluorobenzyl)-1H-pyrrolo[2,3-b]quinoxaline-3-carboxylate] as the molecule, how does the viability at 10 µM [1] read?
**A.** 71.3 ± 4.34%

**Q.** And the activity at 100 µM [3]?
**A.** 130.6 ± 1.27%

**Q.** With `CC(C)(C)OC(=O)c1c(N)n(Cc2ccccc2)c2nc3ccccc3nc12` [SKLB-11F, Tert-butyl 2-amino-1-benzyl-1H-pyrrolo[2,3-b]quinoxaline-3-carboxylate] as the molecule, how does the viability at 10 µM [1] read?
**A.** 69 ± 1.22%

**Q.** And the activity at 100 µM [3]?
**A.** 122.7 ± 0.59%

**Q.** How did the viability at 10 µM [1] turn out when `Cc1ccc(Cn2c(N)c(C(=O)OC(C)(C)C)c3nc4ccccc4nc32)cc1` [SKLB-11G, Tert-butyl 2-amino-1-(4-methylbenzyl)-1H-pyrrolo[2,3-b]quinoxaline-3-carboxylate] was run?
**A.** 63.93 ± 0.62%

**Q.** And the activity at 100 µM [3]?
**A.** 107 ± 1.42%

**Q.** With `COc1ccc(Cn2c(N)c(C(=O)OC(C)(C)C)c3nc4ccccc4nc32)cc1` [SKLB-11H, Tert-butyl 2-amino-1-(4-methoxybenzyl)-1H-pyrrolo[2,3-b]quinoxaline-3-carboxylate] as the molecule, how does the viability at 10 µM [1] read?
**A.** 68.7 ± 4.61%

**Q.** What about the activity at 100 µM [3] of the same molecule?
**A.** 125.7 ± 0.91%

**Q.** With `NC(=O)c1c(N)n(Cc2ccc(F)cc2)c2nc3ccccc3nc12` [SKLB-11I, 2-amino-1-(4-fluorobenzyl)-1H-pyrrolo[2,3-b]quinoxaline-3-carboxamide] as the molecule, how does the viability at 10 µM [1] read?
**A.** 70.8 ± 3.76%

**Q.** And the activity at 100 µM [3]?
**A.** 135 ± 2.43%

**Q.** What does the source list for `CNC(=O)c1c(N)n(Cc2ccc(F)cc2)c2nc3ccccc3nc12` [SKLB-11J, 2-amino-1-(4-fluorobenzyl)-N-methyl-1H-pyrrolo[2,3-b]quinoxaline-3-carboxamide]?
**A.** viability at 10 µM [1]: 72.4 ± 2.21%; activity at 100 µM [3]: 150 ± 1.75%

**Q.** With `CCNC(=O)c1c(N)n(Cc2ccc(F)cc2)c2nc3ccccc3nc12` [SKLB-11K, 2-amino-N-ethyl-1-(4-fluorobenzyl)-1H-pyrrolo[2,3-b]quinoxaline-3-carboxamide] as the molecule, how does the viability at 10 µM [1] read?
**A.** 71.5 ± 2.09%

**Q.** What about the activity at 100 µM [3] of the same molecule?
**A.** 144.3 ± 0.82%

**Q.** `CCCCNC(=O)c1c(N)n(Cc2ccc(F)cc2)c2nc3ccccc3nc12` [SKLB-11L, 2-amino-N-butyl-1-(4-fluorobenzyl)-1H-pyrrolo[2,3-b]quinoxaline-3-carboxamide] was tested. Which viability at 10 µM [1] did it give?
**A.** 67.1 ± 1.6%

**Q.** What about the activity at 100 µM [3] of the same molecule?
**A.** 123.6 ± 0.95%

**Q.** With `Nc1c(C(=O)NC2CC2)c2nc3ccccc3nc2n1Cc1ccc(F)cc1` [SKLB-11M, 2-amino-N-cyclopropyl-1-(4-fluorobenzyl)-1H-pyrrolo[2,3-b]quinoxaline-3-carboxamide] as the molecule, how does the viability at 10 µM [1] read?
**A.** 64.5 ± 0.87%

**Q.** And the activity at 100 µM [3]?
**A.** 104 ± 1.75%

**Q.** What does the source list for `CCCCCNC(=O)c1c(N)n(Cc2ccccc2)c2nc3ccccc3nc12` [SKLB-11N, 2-amino-1-benzyl-N-pentyl-1H-pyrrolo[2,3-b]quinoxaline-3-carboxamide]?
**A.** viability at 10 µM [1]: 66.3 ± 4.52%; activity at 100 µM [3]: 119 ± 3.3%

**Q.** Which results are given for `CCCCCNC(=O)c1c(N)n(Cc2ccc(Br)cc2)c2nc3ccccc3nc12` [SKLB-11O, 2-amino-1-(4-bromobenzyl)-N-pentyl-1H-pyrrolo[2,3-b]quinoxaline-3-carboxamide]?
**A.** viability at 10 µM [1]: 69.2 ± 1.35%; activity at 100 µM [3]: 126 ± 1.32%

**Q.** Which viability at 10 µM [1] does the source give for `CCCCCNC(=O)c1c(N)n(Cc2cccc(Br)c2)c2nc3ccccc3nc12` [SKLB-11P, 2-amino-1-(3-bromobenzyl)-N-pentyl-1H-pyrrolo[2,3-b]quinoxaline-3-carboxamide] here?
**A.** 65.8 ± 4.18%

**Q.** And the activity at 100 µM [3]?
**A.** 116.2 ± 0.57%

**Q.** How did the viability at 10 µM [1] turn out when `CCCCCNC(=O)c1c(N)n(Cc2cccc(Cl)c2)c2nc3ccccc3nc12` [SKLB-11Q, 2-amino-1-(3-chlorobenzyl)-N-pentyl-1H-pyrrolo[2,3-b]quinoxaline-3-carboxamide] was run?
**A.** 66.5 ± 1.19%

**Q.** And the activity at 100 µM [3]?
**A.** 118 ± 0.63%
